Data on nine compounds can be found in the OPERA property sets (Mansouri et al. 2018).

In brackets after ≈: the same amount, converted by molar mass.

Details in one data set: not given
For orientation: logP means the decadic logarithm of the partition coefficient of the neutral form, usually between octanol and water. Read a high logP as a more lipophilic compound. Compound `O=C(NCN1CCOCC1)c1ccccc1O` had a logP of 1.27.

With `CC(C)(C)C(=O)OCOc1ccccc1C(=O)NCN1CCOCC1`, the logP turned out to be 1.81.

The compound `CC(=O)OCOc1ccccc1C(=O)NCN1CCOCC1` had a logP of 0.27.

`CCCC(=O)OCOc1ccccc1C(N)=O` registered a logP of 1.66.

For the compound `CCC(C(=O)OCCc1ccccc1)C(COC(=O)c1ccccc1)Cc1cncn1C` (stereo not given), the logP was 4.6.

`CCCC(=O)OCOc1ccccc1C(=O)NCN1CCOCC1` yielded a logP of 1.34.

The compound `CC(=O)OCOc1ccccc1C(N)=O` had a logP of 0.52.

Take `CC(C)(C)C(=O)OCOc1ccccc1C(N)=O`: the logP came to 2.

Consider `CCOC(=O)CC(CO)C(CC)c1cncn1C` (stereo not given), for which the logP was determined as 0.73.

Still in this data set, the particulars now being: 23 °C.
In general, solubility refers to the dissolved amount per volume that the medium holds. A lower solubility goes with a poorly soluble substance. Take `CC(C)(C)C(=O)OCOc1ccccc1C(N)=O`: the solubility was found to be 2430 µM (≈ 610 µg/mL).
